From ChEMBL document CHEMBL1201862, “PubChem BioAssay data set” (2004) come the findings set out here.

For test [1], the target named is Lysosomal acid glucosylceramidase (Homo sapiens, UniProt P04062). As to the kind of experiment: Dose response cell-based high throughput screening assay to identify enhancers of beta-glucosidase activity. [Related pubchem assays: 784 ]. Format: functional.
For test [2], the target named is T1, Corticotropin-releasing factor receptor 2/Corticotropin-releasing factor-binding protein (Homo sapiens, UniProt P24387+Q13324).
T1 sequence (Q13324 whole entry): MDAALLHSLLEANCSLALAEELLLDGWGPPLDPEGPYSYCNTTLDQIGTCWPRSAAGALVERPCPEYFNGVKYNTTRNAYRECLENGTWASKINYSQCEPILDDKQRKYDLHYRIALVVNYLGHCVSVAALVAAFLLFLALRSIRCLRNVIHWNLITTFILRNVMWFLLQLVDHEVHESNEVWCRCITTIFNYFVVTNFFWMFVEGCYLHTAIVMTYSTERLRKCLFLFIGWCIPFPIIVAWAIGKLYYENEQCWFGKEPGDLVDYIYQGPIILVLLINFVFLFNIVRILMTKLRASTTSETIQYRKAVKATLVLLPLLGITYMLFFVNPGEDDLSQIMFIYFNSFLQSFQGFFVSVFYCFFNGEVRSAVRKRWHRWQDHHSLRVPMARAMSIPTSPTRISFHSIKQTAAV
T1 sequence (P24387 whole entry): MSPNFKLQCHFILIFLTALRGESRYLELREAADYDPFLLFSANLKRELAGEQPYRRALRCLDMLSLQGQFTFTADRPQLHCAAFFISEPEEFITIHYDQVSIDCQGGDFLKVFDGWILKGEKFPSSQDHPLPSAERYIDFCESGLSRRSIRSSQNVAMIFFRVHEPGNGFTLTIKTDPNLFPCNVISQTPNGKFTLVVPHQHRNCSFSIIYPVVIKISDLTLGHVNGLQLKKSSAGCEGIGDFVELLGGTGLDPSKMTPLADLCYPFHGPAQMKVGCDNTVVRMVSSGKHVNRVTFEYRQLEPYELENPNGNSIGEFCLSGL
Nature of the test: activators of CRF receptor 2 with binding protein – uHTS hits, confirmation (AID 602473). Format: functional. As to conditions: read-out: EC50_Mean.

A short description of test [3]: Counterscreen for IDE inhibitors: Luminescence-based cell-based high throughput dose response assay to identify compounds that are cytotoxic to HEK cells. [Related pubchem assays: 434962 (Primary screen (IDE inhibitors in singlicate)), 449730 (Counterscreen (Cytotoxicity in triplicate)), 435028 (Confirmation (IDE inhibitors in triplicate)) …. Format: functional. The note with it: HEK293. On the technique in general: A counterscreen serves to expose hits that act by an unwanted route or on another target.

For the next test, the target named is T2, Insulin-degrading enzyme (Homo sapiens, UniProt P14735).
T2 sequence (P14735 whole entry): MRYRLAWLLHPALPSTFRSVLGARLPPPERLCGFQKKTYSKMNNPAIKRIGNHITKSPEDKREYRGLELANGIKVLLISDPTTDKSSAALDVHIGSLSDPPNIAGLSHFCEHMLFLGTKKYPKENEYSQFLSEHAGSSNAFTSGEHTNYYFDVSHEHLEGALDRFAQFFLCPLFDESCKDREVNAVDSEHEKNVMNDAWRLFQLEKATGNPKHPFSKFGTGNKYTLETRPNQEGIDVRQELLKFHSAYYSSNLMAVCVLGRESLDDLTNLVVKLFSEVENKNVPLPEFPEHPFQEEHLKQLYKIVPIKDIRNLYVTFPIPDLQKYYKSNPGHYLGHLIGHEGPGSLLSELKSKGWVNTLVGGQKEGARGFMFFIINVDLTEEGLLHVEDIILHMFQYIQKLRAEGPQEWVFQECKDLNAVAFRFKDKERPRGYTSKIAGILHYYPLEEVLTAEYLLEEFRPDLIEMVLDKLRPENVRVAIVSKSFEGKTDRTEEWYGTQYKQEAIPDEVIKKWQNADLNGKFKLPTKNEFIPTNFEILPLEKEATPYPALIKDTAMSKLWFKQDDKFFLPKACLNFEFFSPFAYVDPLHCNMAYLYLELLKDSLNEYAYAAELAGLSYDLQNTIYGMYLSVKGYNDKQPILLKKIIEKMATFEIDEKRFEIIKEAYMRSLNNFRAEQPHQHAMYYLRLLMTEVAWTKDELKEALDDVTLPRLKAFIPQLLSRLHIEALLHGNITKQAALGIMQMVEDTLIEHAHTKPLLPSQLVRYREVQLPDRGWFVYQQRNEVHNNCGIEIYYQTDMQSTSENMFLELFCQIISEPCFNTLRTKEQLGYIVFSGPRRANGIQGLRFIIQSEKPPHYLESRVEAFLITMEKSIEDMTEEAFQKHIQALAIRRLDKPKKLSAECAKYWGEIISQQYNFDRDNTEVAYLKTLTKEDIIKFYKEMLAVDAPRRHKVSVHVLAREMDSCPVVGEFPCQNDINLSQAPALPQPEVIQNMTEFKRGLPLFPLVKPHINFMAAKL
Nature of the test: Dose Response: Fluorescence polarization-based cell-based high throughput dose response assay for inhibitors of insulin-degrading enzyme (IDE). [Related pubchem assays: 434962 (Primary screen (IDE inhibitors in singlicate)), 449730 (Counterscreen (Cytotoxicity in triplicate)), 435028 (Confirmation (IDE inhibitors in triplicate)), 434984 (Summary …. Format: functional. A general note: Fluorescence polarisation rises when a labelled molecule tumbles more slowly, as on binding a larger partner.

In test [4] the target is T3, Long-chain-fatty-acid--AMP ligase FadD28 (Mycobacterium tuberculosis, UniProt P9WQ59).
T3 sequence (P9WQ59 whole entry): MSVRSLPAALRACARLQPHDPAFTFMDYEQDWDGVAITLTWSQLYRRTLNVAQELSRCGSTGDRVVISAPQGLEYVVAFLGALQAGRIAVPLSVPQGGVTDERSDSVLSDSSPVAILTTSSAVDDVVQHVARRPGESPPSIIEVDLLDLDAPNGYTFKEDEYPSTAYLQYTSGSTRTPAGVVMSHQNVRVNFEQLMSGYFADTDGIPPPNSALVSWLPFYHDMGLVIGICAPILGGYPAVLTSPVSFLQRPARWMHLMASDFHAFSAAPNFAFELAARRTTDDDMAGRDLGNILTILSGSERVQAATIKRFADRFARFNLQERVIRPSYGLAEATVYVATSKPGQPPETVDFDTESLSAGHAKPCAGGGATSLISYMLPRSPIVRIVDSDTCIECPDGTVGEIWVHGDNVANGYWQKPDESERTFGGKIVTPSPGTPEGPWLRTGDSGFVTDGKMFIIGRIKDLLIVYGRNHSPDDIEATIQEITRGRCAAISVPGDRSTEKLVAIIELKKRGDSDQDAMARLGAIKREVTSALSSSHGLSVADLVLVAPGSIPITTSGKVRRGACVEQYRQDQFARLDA
As to the kind of experiment: Fluorescence polarization aasay to screen for inhibitors that compete for the binding of FadD28 to a bisubstrate Measured in Biochemical System Using Plate Reader - 2147-01_Inhibitor_Dose_CherryPick_Activity. Format: functional, Mycobacterium tuberculosis H37Rv.

A further test addresses Genome polyprotein (dengue virus type 2, UniProt P29990). Nature of the test: Dengue-2 NS5 methyltransferase inhibitors, primary screen, biochemical, confirmation dose response (AID 588689). It is filed as functional.
Test [5] addresses FAD-linked sulfhydryl oxidase ALR (Homo sapiens, UniProt P55789). Nature of the test: inhibitors of human ALR sulfhydryl oxidase, dose response, biochemical, H2O2 detection, luminescence, cherry-pick (AID 493248).
The nature of test [6]: HEp-2 cell cytotoxicity, dose response, cytotoxicity control for RSV inhibitor project, HTS (AID 2410). It is filed as functional. As to conditions: human respiratory syncytial virus.
A short description of test [7]: HIV-1 Env-mediated cell fusion inhibitors, dose response, CCR5-tropic Env (AID 2279). Format: functional.
A further test addresses Cytochrome P450 2D6 (Homo sapiens, UniProt P10635). As to the kind of experiment: qHTS Assay for Inhibitors and Substrates of Cytochrome P450 2D6. [Related pubchem assays: 410 ]. It is filed as ADME. The note with it: read-out: Potency.

As a reminder, the IC50 is the concentration that gives 50% inhibition. What is called CC50 is the concentration at which the toxic effect on the cells reaches its halfway point.

Each structure is given as a SMILES string. Calls of active or inactive are those of the source. Some results are limits rather than exact numbers.

Lysosomal acid glucosylceramidase, sequence (P04062 whole entry): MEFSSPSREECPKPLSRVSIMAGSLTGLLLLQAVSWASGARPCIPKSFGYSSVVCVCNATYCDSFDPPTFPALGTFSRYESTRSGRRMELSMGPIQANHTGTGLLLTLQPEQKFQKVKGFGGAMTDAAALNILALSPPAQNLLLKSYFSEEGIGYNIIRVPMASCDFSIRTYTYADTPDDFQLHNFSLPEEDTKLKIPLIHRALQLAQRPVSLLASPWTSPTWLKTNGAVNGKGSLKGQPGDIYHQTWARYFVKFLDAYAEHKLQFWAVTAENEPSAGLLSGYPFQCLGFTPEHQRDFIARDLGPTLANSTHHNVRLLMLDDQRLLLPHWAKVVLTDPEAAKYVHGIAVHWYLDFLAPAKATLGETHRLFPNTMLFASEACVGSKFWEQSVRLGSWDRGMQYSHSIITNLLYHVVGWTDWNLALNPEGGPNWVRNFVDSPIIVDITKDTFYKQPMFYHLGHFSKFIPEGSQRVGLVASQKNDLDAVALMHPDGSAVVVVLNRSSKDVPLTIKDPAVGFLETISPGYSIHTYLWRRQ
Cytochrome P450 2D6, sequence (P10635 whole entry): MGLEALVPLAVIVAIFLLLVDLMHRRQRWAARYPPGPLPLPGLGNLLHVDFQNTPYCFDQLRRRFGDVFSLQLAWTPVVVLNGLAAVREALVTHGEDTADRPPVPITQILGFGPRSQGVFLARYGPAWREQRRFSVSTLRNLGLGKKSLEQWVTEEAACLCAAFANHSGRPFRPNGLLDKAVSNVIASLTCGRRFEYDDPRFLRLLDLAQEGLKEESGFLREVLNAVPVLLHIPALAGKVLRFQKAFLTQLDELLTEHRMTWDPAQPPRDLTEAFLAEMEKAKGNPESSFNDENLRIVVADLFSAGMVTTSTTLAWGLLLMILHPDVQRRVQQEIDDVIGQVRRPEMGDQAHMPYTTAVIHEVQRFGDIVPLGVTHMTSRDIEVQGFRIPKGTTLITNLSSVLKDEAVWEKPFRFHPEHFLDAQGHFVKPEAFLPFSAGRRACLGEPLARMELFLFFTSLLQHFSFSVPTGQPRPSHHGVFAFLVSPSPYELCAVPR
FAD-linked sulfhydryl oxidase ALR, sequence (P55789 whole entry): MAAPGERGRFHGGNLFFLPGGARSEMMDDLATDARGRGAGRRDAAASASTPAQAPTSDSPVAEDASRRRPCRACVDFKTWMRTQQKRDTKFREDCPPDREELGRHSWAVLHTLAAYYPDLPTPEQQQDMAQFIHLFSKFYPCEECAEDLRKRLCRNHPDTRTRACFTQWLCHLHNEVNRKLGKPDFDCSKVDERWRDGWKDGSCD
Genome polyprotein, sequence (P29990 2492-3391 limits assumed): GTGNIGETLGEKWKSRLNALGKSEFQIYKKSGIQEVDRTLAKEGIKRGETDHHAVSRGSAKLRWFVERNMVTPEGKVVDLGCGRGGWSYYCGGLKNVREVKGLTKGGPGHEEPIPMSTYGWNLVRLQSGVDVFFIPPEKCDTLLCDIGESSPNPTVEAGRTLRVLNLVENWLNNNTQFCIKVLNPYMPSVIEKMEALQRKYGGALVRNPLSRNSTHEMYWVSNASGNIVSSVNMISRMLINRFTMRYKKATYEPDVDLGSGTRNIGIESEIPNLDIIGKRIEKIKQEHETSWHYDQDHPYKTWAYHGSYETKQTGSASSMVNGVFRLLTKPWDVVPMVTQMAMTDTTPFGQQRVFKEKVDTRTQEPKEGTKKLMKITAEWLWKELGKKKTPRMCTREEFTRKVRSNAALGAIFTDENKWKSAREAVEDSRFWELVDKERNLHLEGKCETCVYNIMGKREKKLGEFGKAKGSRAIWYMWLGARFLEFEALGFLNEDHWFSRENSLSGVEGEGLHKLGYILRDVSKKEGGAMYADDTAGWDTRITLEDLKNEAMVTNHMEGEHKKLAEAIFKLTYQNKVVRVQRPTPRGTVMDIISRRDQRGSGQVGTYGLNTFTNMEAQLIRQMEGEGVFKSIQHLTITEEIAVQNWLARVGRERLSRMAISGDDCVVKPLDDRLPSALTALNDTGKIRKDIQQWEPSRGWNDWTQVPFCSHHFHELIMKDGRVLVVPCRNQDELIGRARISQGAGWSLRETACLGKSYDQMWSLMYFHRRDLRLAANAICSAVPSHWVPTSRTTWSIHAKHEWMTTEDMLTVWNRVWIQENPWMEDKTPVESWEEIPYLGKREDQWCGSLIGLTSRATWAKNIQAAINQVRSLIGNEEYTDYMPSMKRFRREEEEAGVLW

Turning to `CC(CS(=O)(=O)c1cccc2cccnc12)N1CCCCC1` (stereo not given), in test [1], the EC50 is listed as > 50 µM (not active).

Regarding `CCN1/C(=C\C=C(C(C)=O)C(C)=O)Sc2ccccc21`, the EC50 in test [2] was 4.9 µM (active). Further, the IC50 in test [3] was 33.9 µM (not active); on Insulin-degrading enzyme, 8.83 µM (active).

With `O=C(O)c1cc(N/N=C/c2ccc(-c3ccccc3)cc2)ccc1Cl`, the results for the AC50 in [4] and in test [5] were 18.4 µM (active) and 1.83 µM (active), respectively. Besides, the IC50 is 61.5 µM (active) at Genome polyprotein and 11 µM (active) in test [7]. Further, in test [6], the CC50 is 31.1 µM (active).

Regarding `COc1ccc([C@@H]2CC(=O)c3c(O)cc(O)cc3O2)cc1O` [HESPERETIN], the AC50 at Cytochrome P450 2D6 is 39.8 µM (inconclusive).
